Data as given in the NIST ThermoML archive (doi:10.1021/je1001413).

Conditions: Liquid, Vibrating tube method

CC(C)CCCCCCCOC(=O)c1ccccc1C(=O)OCCCCCCCC(C)C
Conditions	mass density [kg/m3]
313.15 K, 100 kPa	952.6
313.15 K, 200 kPa	952.6
313.15 K, 400 kPa	952.8
313.15 K, 620 kPa	952.9
313.15 K, 800 kPa	953
313.15 K, 1030 kPa	953.1
313.15 K, 2010 kPa	953.7
313.15 K, 3000 kPa	954.3
313.15 K, 4000 kPa	955
313.15 K, 5020 kPa	955.5
313.15 K, 5990 kPa	956.2
313.15 K, 7030 kPa	956.7
313.15 K, 8000 kPa	957.4
313.15 K, 9020 kPa	957.9
313.15 K, 10010 kPa	958.5
313.15 K, 15010 kPa	961.4
313.15 K, 20000 kPa	964.2
313.15 K, 25030 kPa	967
313.15 K, 30000 kPa	969.7
313.15 K, 35020 kPa	972.2
313.15 K, 40020 kPa	974.8
313.15 K, 45010 kPa	977.2
313.15 K, 49970 kPa	979.7
313.15 K, 55000 kPa	982
313.15 K, 59980 kPa	984.4
313.15 K, 64970 kPa	986.6
323.15 K, 100 kPa	945.4
323.15 K, 210 kPa	945.5
323.15 K, 400 kPa	945.6
323.15 K, 600 kPa	945.7
323.15 K, 800 kPa	945.9
323.15 K, 1000 kPa	946
323.15 K, 2000 kPa	946.6
323.15 K, 3030 kPa	947.2
323.15 K, 4030 kPa	947.9
323.15 K, 5020 kPa	948.5
323.15 K, 6010 kPa	949.1
323.15 K, 7000 kPa	949.7
323.15 K, 8000 kPa	950.3
323.15 K, 9010 kPa	950.9
323.15 K, 10020 kPa	951.6
323.15 K, 15000 kPa	954.5
323.15 K, 20010 kPa	957.5
323.15 K, 25030 kPa	960.3
323.15 K, 30010 kPa	963.2
323.15 K, 34970 kPa	965.8
323.15 K, 40000 kPa	968.5
323.15 K, 45000 kPa	970.9
323.15 K, 49980 kPa	973.5
323.15 K, 54980 kPa	975.8
323.15 K, 60000 kPa	978.3
323.15 K, 65000 kPa	980.6
333.15 K, 100 kPa	938.3
333.15 K, 200 kPa	938.4
333.15 K, 400 kPa	938.5
333.15 K, 630 kPa	938.7
333.15 K, 800 kPa	938.8
333.15 K, 1000 kPa	938.9
333.15 K, 2010 kPa	939.6
333.15 K, 3000 kPa	940.2
333.15 K, 4000 kPa	940.9
333.15 K, 5000 kPa	941.5
333.15 K, 6000 kPa	942.2
333.15 K, 7030 kPa	942.8
333.15 K, 7980 kPa	943.5
333.15 K, 9010 kPa	944.1
333.15 K, 10030 kPa	944.8
333.15 K, 14990 kPa	947.9
333.15 K, 20000 kPa	951
333.15 K, 25000 kPa	953.8
333.15 K, 30020 kPa	956.7
333.15 K, 34990 kPa	959.4
333.15 K, 39970 kPa	962.2
333.15 K, 45020 kPa	964.8
333.15 K, 50000 kPa	967.4
333.15 K, 55020 kPa	969.8
333.15 K, 60000 kPa	972.3
333.15 K, 65000 kPa	974.7
343.15 K, 100 kPa	931.2
343.15 K, 220 kPa	931.3
343.15 K, 430 kPa	931.5
343.15 K, 610 kPa	931.6
343.15 K, 810 kPa	931.8
343.15 K, 1000 kPa	931.9
343.15 K, 2000 kPa	932.6
343.15 K, 3000 kPa	933.3
343.15 K, 3980 kPa	934
343.15 K, 5010 kPa	934.6
343.15 K, 5980 kPa	935.3
343.15 K, 7000 kPa	936
343.15 K, 7990 kPa	936.6
343.15 K, 9020 kPa	937.3
343.15 K, 9980 kPa	937.9
343.15 K, 15010 kPa	941.2
343.15 K, 19990 kPa	944.3
343.15 K, 25010 kPa	947.4
343.15 K, 29980 kPa	950.4
343.15 K, 35030 kPa	953.3
343.15 K, 40030 kPa	956.1
343.15 K, 45010 kPa	958.7
343.15 K, 50050 kPa	961.4
343.15 K, 55000 kPa	964
343.15 K, 60000 kPa	966.5
343.15 K, 65020 kPa	968.9
353.15 K, 100 kPa	924.2
353.15 K, 200 kPa	924.3
353.15 K, 410 kPa	924.5
353.15 K, 630 kPa	924.6
353.15 K, 800 kPa	924.8
353.15 K, 1010 kPa	924.9
353.15 K, 2000 kPa	925.6
353.15 K, 3000 kPa	926.3
353.15 K, 3980 kPa	927
353.15 K, 4990 kPa	927.7
353.15 K, 6000 kPa	928.4
353.15 K, 7000 kPa	929.1
353.15 K, 8010 kPa	929.8
353.15 K, 9000 kPa	930.5
353.15 K, 10010 kPa	931.2
353.15 K, 15040 kPa	934.6
353.15 K, 20000 kPa	937.9
353.15 K, 24970 kPa	941
353.15 K, 29980 kPa	944.1
353.15 K, 35010 kPa	947.1
353.15 K, 40000 kPa	950
353.15 K, 45000 kPa	952.7
353.15 K, 49990 kPa	955.5
353.15 K, 55000 kPa	958.1
353.15 K, 60010 kPa	960.7
353.15 K, 65020 kPa	963.2
363.15 K, 100 kPa	917.2
363.15 K, 200 kPa	917.3
363.15 K, 420 kPa	917.4
363.15 K, 600 kPa	917.6
363.15 K, 800 kPa	917.7
363.15 K, 990 kPa	917.9
363.15 K, 2000 kPa	918.6
363.15 K, 2980 kPa	919.4
363.15 K, 3960 kPa	920.1
363.15 K, 4970 kPa	920.9
363.15 K, 5990 kPa	921.6
363.15 K, 7020 kPa	922.3
363.15 K, 7980 kPa	923
363.15 K, 9030 kPa	923.8
363.15 K, 10000 kPa	924.5
363.15 K, 15000 kPa	928
363.15 K, 19990 kPa	931.4
363.15 K, 25010 kPa	934.7
363.15 K, 30020 kPa	937.9
363.15 K, 34980 kPa	940.9
363.15 K, 39990 kPa	943.9
363.15 K, 44980 kPa	946.8
363.15 K, 49990 kPa	949.6
363.15 K, 55000 kPa	952.3
363.15 K, 60040 kPa	955
363.15 K, 64990 kPa	957.6
